SMILES strings stand for the structures. Calls of active or inactive are those of the source. No cut-off for these calls is given here.

For the first test, the species on record is Rattus norvegicus. The test is described as follows: The compound was tested for maximum stimulation of PI (phosphatidyl inositol) in rat hippocampal tissue, activity is expressed as percent of carbachol response; Inactive. The format is functional. To be noted: Hippocampus.
With `CC1OC2(CCN(C)CC2)C2OCCOC12` (stereo unspecified), the Max stimulation entry is “inactive”.

As for `CC1OC2(CCN(C)CC2)C2SCCSC12` (stereo unspecified), the Max stimulation entry is “inactive”.

The next test addresses Muscarinic acetylcholine receptor.
Conditions: not given
With `CC1OC2(CCN(C)CC2)CC1=O` (stereo unspecified), the Ki was 2.68 µM.

The molecule `CC1CC(O)C2(CCN(C)CC2)O1` (stereo unspecified) displayed a Ki of 30 µM.

In turn, `CC1OC2(CCN(C)CC2)CC1O` (stereo unspecified) registered a Ki of 141 µM.

In the case of `CC(=O)O/N=C1\COC2(CCN(C)CC2)C1.O=C(O)/C=C\C(=O)O.O=C(O)C(=O)O`, the inhibition constant Ki was 44.8 µM.

`CC1OC2(CCN(C)CC2)C/C1=N\O` (stereo unspecified) had an inhibition constant Ki of 1.63 µM.

On to `CC1CC(=O)C2(CCN(C)CC2)O1` (stereo unspecified), for which the inhibition constant (Ki) worked out at 33 µM.

Turning to `CC(=O)OC1COC2(CCN(C)CC2)C1` (stereo unspecified), the inhibition constant (Ki) is 98.7 µM.

With `CC1OC2(CCN(C)CC2)CC1O.Cl` (stereo unspecified), the Ki was 430 µM.

In turn, `CCC(=O)O/N=C1\COC2(CCN(C)CC2)C1.O=C(O)/C=C\C(=O)O.O=C(O)C(=O)O` registered a Ki of 38.1 µM.

As usually defined, the Ki is a dissociation constant, usually derived from enzyme kinetics or from competition with a known ligand.
